What was measured:
[1] = Duration of opioid antagonistic activity (general statements); assay type: in vivo; settings: intravenously injectable
[2] = cited from earlier work; for potency relative to naloxone: in vivo
[3] = plasma of a patient; cited from earlier work

Row | Structure (SMILES) | duration of antagonistic activity [1] | potency relative to naloxone [2] | potency as an antagonist relative to naltrexon ([2]; intravenous route) | time a pharmacologically active concentration can remain in the plasma [3]
1 | C=C1CC[C@@]2(O)[C@H]3Cc4ccc(O)c5c4[C@@]2(CCN3CC2CC2)[C@H]1O5 [6-methylene-6-desoxy-N-cyclopropylmethyl-14-hydroxydihydronormorphine] | at least 6 hours | significantly more potent | about four times more potent | three days
2 | O=C1CC[C@@]2(O)[C@H]3Cc4ccc(O)c5c4[C@@]2(CCN3CC2CC2)[C@H]1O5 [naltrexon, reference compound] |  | significantly more potent |  | 

— patent EP0236477B1 (priority 1985, dated 1987)
